US20250353820A1, “ANTIVIRAL PYRAZOLOPYRIDINONE COMPOUNDS” (Novartis AG, priority 2019, published 2025)

Target: human HSV DNA polymerase UL30 (Human herpesvirus 1 (strain 17) (HHV-1) (Human herpes simplex virus 1), UniProt P04293)
Test: biochemical
Settings: 625 pM HSV polymerase, 20 minutes at room temperature; read-out: HSV-polymerase Biochemical IC50

| SMILES | IC50 |
| --- | --- |
| Cn1nc(C(=O)NCc2ccc(Cl)cc2)c2c1C(=O)N(CC1(S(=O)(=O)C(C)(C)CO)CC1)CC2 [Example 50, N-(4-Chlorobenzyl)-6-((1-((1-hydroxy-2-methylpropan-2-yl)sulfonyl)cyclopropyl)methyl)-1-methyl-7-oxo-4,5,6,7-tetrahydro-1H-pyrazolo[3,4-c]pyridine-3-carboxamide] | 16 nM |
| Cn1nc(C(=O)NCc2ccc(Cl)nc2)c2c1C(=O)N(CC1(S(=O)(=O)C(C)(C)CO)CC1)CC2 [Example 51, N-((6-Chloropyridin-3-yl)methyl)-6-((1-((1-hydroxy-2-methylpropan-2-yl)sulfonyl)cyclopropyl)methyl)-1-methyl-7-oxo-4,5,6,7-tetrahydro-1H-pyrazolo[3,4-c]pyridine-3-carboxamide] | 89 nM |
| Cn1nc(C(=O)NCc2ccc(C#N)cc2)c2c1C(=O)N(CC1(S(=O)(=O)C(C)(C)CO)CC1)CC2 [Example 52, N-(4-Cyanobenzyl)-6-((1-((1-hydroxy-2-methylpropan-2-yl)sulfonyl)cyclopropyl)methyl)-1-methyl-7-oxo-4,5,6,7-tetrahydro-1H-pyrazolo[3,4-c]pyridine-3-carboxamide] | 19 nM |
| Cn1nc(C(=O)NCc2ccc(F)cc2)c2c1C(=O)N(CC1(S(=O)(=O)C(C)(C)CO)CC1)CC2 [Example 53, N-(4-Fluorobenzyl)-6-((1-((1-hydroxy-2-methylpropan-2-yl)sulfonyl)cyclopropyl)methyl)-1-methyl-7-oxo-4,5,6,7-tetrahydro-1H-pyrazolo[3,4-c]pyridine-3-carboxamide] | 70 nM |
| C[C@H](NC(=O)c1nn(C)c2c1CCN(CC1(S(=O)(=O)C(C)(C)CO)CC1)C2=O)c1ccc(C#N)cc1 [Example 54, (S)-N-(1-(4-Cyanophenyl)ethyl)-6-((1-((1-hydroxy-2-methylpropan-2-yl)sulfonyl)cyclopropyl)methyl)-1-methyl-7-oxo-4,5,6,7-tetrahydro-1H-pyrazolo[3,4-c]pyridine-3-carboxamide] | 103 nM |
| C[C@@H](NC(=O)c1nn(C)c2c1CCN(CC1(S(=O)(=O)C(C)(C)CO)CC1)C2=O)c1ccc(C#N)cc1 [Example 55, (R)-N-(1-(4-Cyanophenyl)ethyl)-6-((1-((1-hydroxy-2-methylpropan-2-yl)sulfonyl)cyclopropyl)methyl)-1-methyl-7-oxo-4,5,6,7-tetrahydro-1H-pyrazolo[3,4-c]pyridine-3-carboxamide] | > 25000 nM |
| Cn1nc(C(=O)NCc2ccc(C#N)cc2)c2c1C(=O)N(CC1(S(=O)(=O)C(C)(C)COC(F)F)CC1)CC2 [Example 58, N-(4-Cyanobenzyl)-6-((1-((1-(difluoromethoxy)-2-methylpropan-2-yl)sulfonyl)cyclopropyl)methyl)-1-methyl-7-oxo-4,5,6,7-tetrahydro-1H-pyrazolo[3,4-c]pyridine-3-carboxamide] | 24 nM |
| Cn1nc(C(=O)NCc2ccc(C#N)cc2)c2c1C(=O)N(CC1(S(=O)(=O)C(C)(C)C#N)CC1)CC2 [Example 59, N-(4-Cyanobenzyl)-6-((1-((2-cyanopropan-2-yl)sulfonyl)cyclopropyl)methyl)-1-methyl-7-oxo-4,5,6,7-tetrahydro-1H-pyrazolo[3,4-c]pyridine-3-carboxamide] | 23 nM |
| Cn1nc(C(=O)NCc2ccc(C#N)cc2)c2c1C(=O)N(CC1(S(=O)(=O)C(C)(C)CN3CC(F)C3)CC1)CC2 [Example 60, N-(4-Cyanobenzyl)-6-((1-((1-(3-fluoroazetidin-1-yl)-2-methylpropan-2-yl)sulfonyl)cyclopropyl)methyl)-1-methyl-7-oxo-4,5,6,7-tetrahydro-1H-pyrazolo[3,4-c]pyridine-3-carboxamide] | 45 nM |
| Cn1nc(C(=O)NCc2ccc(C#N)cc2)c2c1C(=O)N(CC1(S(=O)(=O)C(C)(C)CN3CCOCC3)CC1)CC2 [Example 61, N-(4-Cyanobenzyl)-1-methyl-6-((1-((2-methyl-1-morpholinopropan-2-yl)sulfonyl)cyclopropyl)methyl)-7-oxo-4,5,6,7-tetrahydro-1H-pyrazolo[3,4-c]pyridine-3-carboxamide] | 75 nM |
| CO[C@@H]1CCN(CC(C)(C)S(=O)(=O)C2(CN3CCc4c(C(=O)NCc5ccc(C#N)cc5)nn(C)c4C3=O)CC2)C1 [Example 62, (R)-N-(4-cyanobenzyl)-6-((1-((1-(3-methoxypyrrolidin-1-yl)-2-methylpropan-2-yl)sulfonyl)cyclopropyl)methyl)-1-methyl-7-oxo-4,5,6,7-tetrahydro-1H-pyrazolo[3,4-c]pyridine-3-carboxamide] | 139 nM |
| Cn1nc(C(=O)NCc2ccc(C#N)cc2)c2c1C(=O)N(CC1(S(=O)(=O)C(C)(C)CN3CC4CC(C3)O4)CC1)CC2 [Example 63, 6-((1-((1-(6-Oxa-3-azabicyclo[3.1.1]heptan-3-yl)-2-methylpropan-2-yl)sulfonyl)cyclopropyl)methyl)-N-(4-cyanobenzyl)-1-methyl-7-oxo-4,5,6,7-tetrahydro-1H-pyrazolo[3,4-c]pyridine-3-carboxamide] | 100 nM |
| Cn1nc(C(=O)NCc2ccc(C#N)cc2)c2c1C(=O)N(CC1(S(=O)(=O)C(C)(C)CN3CC4CC3CO4)CC1)CC2 (stereo not drawn) [Example 64, 6-((1-((1-(2-Oxa-5-azabicyclo[2.2.1]heptan-5-yl)-2-methylpropan-2-yl)sulfonyl)cyclopropyl)methyl)-N-(4-cyanobenzyl)-1-methyl-7-oxo-4,5,6,7-tetrahydro-1H-pyrazolo[3,4-c]pyridine-3-carboxamide] | 60 nM |
| Cn1nc(C(=O)NCc2ccc(C#N)cc2)c2c1C(=O)N(CC1(S(=O)(=O)C(C)(C)CN3CC(O)C3)CC1)CC2 [Example 65, N-(4-Cyanobenzyl)-6-((1-((1-(3-hydroxyazetidin-1-yl)-2-methylpropan-2-yl)sulfonyl)cyclopropyl)methyl)-1-methyl-7-oxo-4,5,6,7-tetrahydro-1H-pyrazolo[3,4-c]pyridine-3-carboxamide] | 52 nM |
| COC1CN(CC(C)(C)S(=O)(=O)C2(CN3CCc4c(C(=O)NCc5ccc(C#N)cc5)nn(C)c4C3=O)CC2)C1 [Example 66, N-(4-Cyanobenzyl)-6-((1-((1-(3-methoxyazetidin-1-yl)-2-methylpropan-2-yl)sulfonyl)cyclopropyl)methyl)-1-methyl-7-oxo-4,5,6,7-tetrahydro-1H-pyrazolo[3,4-c]pyridine-3-carboxamide] | 50 nM |
| Cn1nc(C(=O)NCc2ccc(C#N)cc2)c2c1C(=O)N(CC1(S(=O)(=O)C(C)(C)CN3CC4(COC4)C3)CC1)CC2 [Example 67, N-(4-Cyanobenzyl)-1-methyl-6-((1-((2-methyl-1-(2-oxa-6-azaspiro[3.3]heptan-6-yl)propan-2-yl)sulfonyl)cyclopropyl)methyl)-7-oxo-4,5,6,7-tetrahydro-1H-pyrazolo[3,4-c]pyridine-3-carboxamide] | 48 nM |
| Cn1nc(C(=O)NCc2ccc(C#N)cc2)c2c1C(=O)N(CC1(S(=O)(=O)C(C)(C)CN3CCC(O)C3)CC1)CC2 (stereo not drawn) [Example 68, N-(4-Cyanobenzyl)-6-((1-((1-(3-hydroxypyrrolidin-1-yl)-2-methylpropan-2-yl)sulfonyl)cyclopropyl)methyl)-1-methyl-7-oxo-4,5,6,7-tetrahydro-1H-pyrazolo[3,4-c]pyridine-3-carboxamide] | 21 nM |
| Cn1nc(C(=O)NCc2ccc(C#N)cc2)c2c1C(=O)N(CC1(S(=O)(=O)C(C)(C)CNCCO)CC1)CC2 [Example 69, N-(4-Cyanobenzyl)-6-((1-((1-((2-hydroxyethyl)amino)-2-methylpropan-2-yl)sulfonyl)cyclopropyl)methyl)-1-methyl-7-oxo-4,5,6,7-tetrahydro-1H-pyrazolo[3,4-c]pyridine-3-carboxamide] | 40 nM |
| Cn1nc(C(=O)NCc2ccc(C#N)cc2)c2c1C(=O)N(CC1(S(=O)(=O)C(C)(C)CN)CC1)CC2 [Example 70, 6-((1-((1-Amino-2-methylpropan-2-yl)sulfonyl)cyclopropyl)methyl)-N-(4-cyanobenzyl)-1-methyl-7-oxo-4,5,6,7-tetrahydro-1H-pyrazolo[3,4-c]pyridine-3-carboxamide] | 37 nM |
| COC(=O)NCC(C)(C)S(=O)(=O)C1(CN2CCc3c(C(=O)NCc4ccc(C#N)cc4)nn(C)c3C2=O)CC1 [Example 73, Methyl (2-((1-((3-((4-cyanobenzyl)carbamoyl)-1-methyl-7-oxo-1,4,5,7-tetrahydro-6H-pyrazolo[3,4-c]pyridin-6-yl)methyl)cyclopropyl)sulfonyl)-2-methylpropyl)carbamate] | 40 nM |
| Cn1nc(C(=O)NCc2ccc(C#N)cc2)c2c1C(=O)N(CC1(S(=O)(=O)C(C)(C)CNC(=O)CN)CC1)CC2 [Example 74, 6-((1-((1-(2-Aminoacetamido)-2-methylpropan-2-yl)sulfonyl)cyclopropyl)methyl)-N-(4-cyanobenzyl)-1-methyl-7-oxo-4,5,6,7-tetrahydro-1H-pyrazolo[3,4-c]pyridine-3-carboxamide] | 65 nM |
| C[C@@H](N)C(=O)NCC(C)(C)S(=O)(=O)C1(CN2CCc3c(C(=O)NCc4ccc(C#N)cc4)nn(C)c3C2=O)CC1 [Example 75, (R)-6-((1-((1-(2-Aminopropanamido)-2-methylpropan-2-yl)sulfonyl)cyclopropyl)methyl)-N-(4-cyanobenzyl)-1-methyl-7-oxo-4,5,6,7-tetrahydro-1H-pyrazolo[3,4-c]pyridine-3-carboxamide] | 133 nM |
| C[C@H](N)C(=O)NCC(C)(C)S(=O)(=O)C1(CN2CCc3c(C(=O)NCc4ccc(C#N)cc4)nn(C)c3C2=O)CC1 [Example 76, (S)-6-((1-((1-(2-Aminopropanamido)-2-methylpropan-2-yl)sulfonyl)cyclopropyl)methyl)-N-(4-cyanobenzyl)-1-methyl-7-oxo-4,5,6,7-tetrahydro-1H-pyrazolo[3,4-c]pyridine-3-carboxamide] | 123 nM |
| Cn1nc(C(=O)NCc2ccc(C#N)cc2)c2c1C(=O)N(CC1(S(=O)(=O)C(C)(C)CNC(=O)C(C)(C)N)CC1)CC2 [Example 77, 6-((1-((1-(2-Amino-2-methylpropanamido)-2-methylpropan-2-yl)sulfonyl)cyclopropyl)methyl)-N-(4-cyanobenzyl)-1-methyl-7-oxo-4,5,6,7-tetrahydro-1H-pyrazolo[3,4-c]pyridine-3-carboxamide] | 142 nM |
